The text below walks through data of US10544185B2 (Suzhou Zelgen Biopharmaceuticals Co., Ltd., priority 2015, dated 2020).

Usually EC50 stands for the concentration giving half of the maximal effect.

This assay addresses T1, farnesoid X receptor (FXR) (Homo sapiens, UniProt Q96RI1).
T1 sequence (Q96RI1 1-486): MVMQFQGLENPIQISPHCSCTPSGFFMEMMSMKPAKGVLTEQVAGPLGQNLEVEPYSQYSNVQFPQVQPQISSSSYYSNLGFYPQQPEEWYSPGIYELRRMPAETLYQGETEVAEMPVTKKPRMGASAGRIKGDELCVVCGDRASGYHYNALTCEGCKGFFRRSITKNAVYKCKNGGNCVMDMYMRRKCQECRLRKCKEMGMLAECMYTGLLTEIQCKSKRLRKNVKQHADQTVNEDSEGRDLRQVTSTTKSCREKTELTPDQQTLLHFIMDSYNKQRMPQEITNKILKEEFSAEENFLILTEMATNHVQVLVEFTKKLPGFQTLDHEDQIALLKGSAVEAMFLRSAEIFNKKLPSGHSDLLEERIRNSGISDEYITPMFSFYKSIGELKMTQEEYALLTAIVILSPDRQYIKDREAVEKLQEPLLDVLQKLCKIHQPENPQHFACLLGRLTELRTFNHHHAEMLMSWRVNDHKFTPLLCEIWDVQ
As to the kind of experiment: Recruitment Coactivator Assay (AlphaScreen) for FXR activation. The format is biochemical. The note with it: read-out: activating activity (EC50) for FXR. As for the experimental part:
The farnesoid X receptor (FXR) activation of the compounds of the present invention is determined by Recruitment Coactivator Assay, i.e. AlphaScreen. Specific in vitro pharmacodynamic evaluation experimental program has referred to the literature J Pharmacol Exp Ther 350:56-68, July 2014.
A general note: In Alpha technology, singlet oxygen from a donor bead excites a nearby acceptor bead.

Regarding “3α, 7[…]-Dihydroxy-6α-(Ethyl-d4)-5β-Cholan-24-Acid [Example 7]”, the 50% effective concentration (EC50) is less than 200 nM.
